From patent publication US9290507B2, “B-RAF kinase inhibitors” (Boehringer Ingelheim International GmbH, priority 2010, dated 2016)

Target: B-Raf (V600E)-kinase (Homo sapiens (Human), UniProt P15056, V600E)
Assay: Kinase test B-Raf (V600E)
Format: biochemical
Settings: 1 h preincubation, 250 μM ATP
Procedure: In a dilution series 10 μL/well of test substance solution are placed in a multiwell plate. The dilution series is selected so that generally a range of concentrations of 2 μM to 0.119 nM or 0.017 nM is covered. If necessary the initial concentration of 2 μM is changed to 50 μM, 10 μM or 0.4 μM or 0.2857 μM and further dilution is carried out accordingly. The final concentration of DMSO is 5%. 10 μL/well of the B-Raf (V600E)-kinase solution are pipetted in (containing 0.5 ng B-Raf (V600E)-kinase (e.g. from Upstate) in 20 mM Tris-HCl pH 7.5, 0.1 mM EDTA, 0.1 mM EGTA, 0.286 mM sodium orthovanadate, 10% glycerol, 1 mg/mL bovine serum albumin, 1 mM dithiothreitol) and the mixture is incubated for 1 h at RT under with shaking. The kinase reaction is started by the addition of 20 μL/well ATP solution [final concentration: 250 μM ATP, 30 mM Tris-HCl pH 7.5, 0.02% Brij, 0.2 mM sodium orthovanadate, 10 mM magnesium acetate, 0.1 mM EGTA, phosphatase cocktail (Sigma, #P2850, dilution recommended by the manufacturer)] and 10 μL/well MEK1 solution [containing 50 ng biotinylated MEK1 (prepared from purified MEK1 according to standard procedure, e.g. with EZ-Link Sulpho-NHS-LC-Biotin reagent, Pierce, #21335)] and carried out for 60 min at RT with constant shaking. The reaction is stopped by the addition of 12 μL/well of a 100 mM EDTA solution and incubation is continued for a further 5 min. 55 μL/well of the reaction solution are transferred into a streptavidin-coated plate (e.g. Streptawell HighBond, Roche, #11989685001) and shaken gently for 1 h at RT, in order to bind biotinylated MEK1 to the plate. After elimination of the liquid the plate is washed five times with 200 μL/well of 1×PBS and 100 μL/well solution of primary antibody plus europium-labelled secondary antibody [Anti Phospho-MEK (Ser217/221), Cell Signaling, #9121 and Eu-N1 labelled goat-anti-rabbit antibody, Perkin Elmer, #AD0105] is added, the primary antibody is diluted 1:2000 and the secondary antibody is diluted to 0.4-0.5 μg/mL in Delfia Assay Buffer (Perkin Elmer, #1244-111). After 1 h shaking at RT the solution is poured away and washed five times with 200 μL/well Delfia Wash Buffer (Perkin Elmer, #4010-0010/#1244-114). After the addition of 200 μL/well Enhancement Solution (Perkin Elmer, #4001-0010/#1244-105) the mixture is shaken for 10 min at RT and then measured in a Wallac Victor using the program “Delfia Time Resolved Fluorescence (Europium)”. IC50 values are obtained from these dosage-activity curves using a software program (GraphPadPrizm).

Chain of B-Raf (V600E)-kinase (P15056 whole entry V600E): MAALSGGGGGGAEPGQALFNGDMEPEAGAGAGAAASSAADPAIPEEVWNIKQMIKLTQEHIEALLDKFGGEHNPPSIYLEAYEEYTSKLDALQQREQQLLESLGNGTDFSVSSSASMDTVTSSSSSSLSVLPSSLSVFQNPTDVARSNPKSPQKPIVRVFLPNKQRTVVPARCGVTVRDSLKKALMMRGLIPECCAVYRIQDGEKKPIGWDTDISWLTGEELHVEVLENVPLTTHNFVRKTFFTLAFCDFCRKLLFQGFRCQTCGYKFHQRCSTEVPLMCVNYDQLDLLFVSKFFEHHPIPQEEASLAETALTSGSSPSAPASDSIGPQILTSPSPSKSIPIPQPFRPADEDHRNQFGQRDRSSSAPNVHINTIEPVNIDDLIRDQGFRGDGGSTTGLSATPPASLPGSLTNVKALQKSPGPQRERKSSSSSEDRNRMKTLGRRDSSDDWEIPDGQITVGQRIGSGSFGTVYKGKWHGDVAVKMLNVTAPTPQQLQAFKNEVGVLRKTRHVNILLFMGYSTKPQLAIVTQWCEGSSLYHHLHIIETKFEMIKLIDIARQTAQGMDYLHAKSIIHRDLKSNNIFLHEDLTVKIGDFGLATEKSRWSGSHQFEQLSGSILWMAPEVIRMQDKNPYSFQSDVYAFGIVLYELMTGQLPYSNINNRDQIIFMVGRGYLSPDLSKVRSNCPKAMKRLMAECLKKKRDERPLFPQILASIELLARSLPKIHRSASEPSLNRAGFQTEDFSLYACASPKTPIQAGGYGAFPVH

Row | Structure (SMILES) | IC50 [nM]
1 | Cc1ccc(C(=O)Nc2cc(C(C)(C)C)on2)cc1-n1cc(-c2cncc(N3CCN(C)CC3)c2)nn1 [I-1] | 8
2 | Cc1ccc(C(=O)Nc2cc(C(C)(C)C)ccn2)cc1-n1cc(-c2cncc(N3CCN(C)CC3)c2)nn1 [I-2] | 18
3 | Cc1ccc(C(=O)Nc2cc(C(C)(C)C)on2)cc1-n1cc(-c2cncc(N(C)CCN(C)C)c2)nn1 [I-3] | 7
4 | Cc1ccc(C(=O)Nc2cc(C(C)(C)C)on2)cc1-n1cc(-c2cncc(N3CCN(C(C)(C)C)CC3)c2)nn1 [I-4] | 12
5 | Cc1ccc(C(=O)Nc2cc(C(C)(C)C)on2)cc1-n1cc(-c2cncc(N3CCN(C4CCCC4)CC3)c2)nn1 [I-5] | 14
6 | C=CCN1CCN(c2cncc(-c3cn(-c4cc(C(=O)Nc5cc(C(C)(C)C)on5)ccc4C)nn3)c2)CC1 [I-6] | 22
7 | CCN1CCC2(CCN(c3cncc(-c4cn(-c5cc(C(=O)Nc6cc(C(C)(C)C)on6)ccc5C)nn4)c3)C2)C1 (stereo not shown) [I-7] | 9
8 | Cc1ccc(C(=O)Nc2cc(C(C)(C)C)on2)cc1-n1cc(-c2cncc(N3CCN(CC4CCCO4)CC3)c2)nn1 (stereo not shown) [I-8] | 22
9 | Cc1ccc(C(=O)Nc2cc(C(C)(C)C)on2)cc1-n1cc(-c2cncc(N3CCC(CN(C)C)CC3)c2)nn1 [I-9] | 12
10 | Cc1ccc(C(=O)Nc2cc(C(C)(C)C)on2)cc1-n1cc(-c2cncc(N(C)C3CCOC3)c2)nn1 (stereo not shown) [I-10] | 8
11 | Cc1ccc(C(=O)Nc2cc(C(C)(C)C)on2)cc1-n1cc(-c2cncc(NC3CCOC3)c2)nn1 (stereo not shown) [I-11] | 6
12 | Cc1ccc(C(=O)Nc2cc(C(C)(C)C)on2)cc1-n1cc(-c2cncc(NC(C)(C)C)c2)nn1 [I-12] | 18
13 | Cc1ccc(C(=O)Nc2cc(C(C)(C)C)n[nH]2)cc1-n1cc(-c2cncc(N3CCOCC3)c2)nn1 [I-13] | 12
14 | Cc1ccc(C(=O)Nc2cc(C(C)(C)C)on2)cc1-n1cc(-c2cncc(NC(C)C)c2)nn1 [I-14] | 17
15 | Cc1ccc(C(=O)Nc2cc(C(C)(C)C)on2)cc1-n1cc(-c2cncc(N3CCN(C)C(C)C3)c2)nn1 (stereo not shown) [I-15] | 21
16 | Cc1ccc(C(=O)Nc2cc(C(C)(C)C)on2)cc1-n1cc(-c2cncc(N3CCN(CCN4CCOCC4)CC3)c2)nn1 [I-16] | 14
17 | Cc1ccc(C(=O)Nc2cc(C(C)(C)C)on2)cc1-n1cc(-c2cncc(N3CCCOCC3)c2)nn1 [I-17] | 16
18 | Cc1ccc(C(=O)Nc2cc(C(C)(C)C)on2)cc1-n1cc(-c2cncc(N(C)C)c2)nn1 [I-18] | 13
19 | Cc1ccc(C(=O)Nc2cc(C(C)(C)C)on2)cc1-n1cc(-c2cncc(N3CCC3)c2)nn1 [I-19] | 11
20 | COCC(C)Nc1cncc(-c2cn(-c3cc(C(=O)Nc4cc(C(C)(C)C)on4)ccc3C)nn2)c1 (stereo not shown) [I-20] | 31
21 | Cc1ccc(C(=O)Nc2cc(C(C)(C)C)on2)cc1-n1cc(-c2cncc(NCC(F)(F)F)c2)nn1 [I-21] | 50

Row | Structure (SMILES) | IC50 [nM]
22 | Cc1ccc(C(=O)Nc2cc(C(C)(C)C)on2)cc1-n1cc(-c2cncc(NCCF)c2)nn1 [I-22] | 16
23 | Cc1ccc(C(=O)Nc2cc(C(C)(C)C)on2)cc1-n1cc(-c2cncc(N3C[C@@H](C)O[C@@H](C)C3)c2)nn1 [I-23] | 26
24 | Cc1ccc(C(=O)Nc2cc(C(C)(C)C)nn2C)cc1-n1cc(-c2cncc(N3CCOCC3)c2)nn1 [I-24] | 19
25 | Cc1ccc(C(=O)Nc2cc(C(C)(C)C)on2)cc1-n1cc(-c2cncc(N(C)CC3CCCO3)c2)nn1 (stereo not shown) [I-25] | 45
26 | Cc1ccc(C(=O)Nc2cc(C(C)(C)C)on2)cc1-n1cc(-c2cncc(N3CCN(C4CC4)CC3)c2)nn1 [I-26] | 28
27 | CCCCN1CCN(c2cncc(-c3cn(-c4cc(C(=O)Nc5cc(C(C)(C)C)on5)ccc4C)nn3)c2)CC1 [I-27] | 15
28 | Cc1ccc(C(=O)Nc2cc(C(C)(C)C)on2)cc1-n1cc(-c2cncc(NC3CC3)c2)nn1 [I-28] | 10
29 | Cc1ccc(C(=O)Nc2cc(C(C)(C)C)on2)cc1-n1cc(-c2cncc(N(C)C3CCOCC3)c2)nn1 [I-29] | 7
30 | CNc1cncc(-c2cn(-c3cc(C(=O)Nc4cc(C(C)(C)C)on4)ccc3C)nn2)c1 [I-30] | 14
31 | Cc1ccc(C(=O)Nc2cc(C(C)(C)C)on2)cc1-n1cc(-c2cncc(N3CCN(CC(F)(F)F)CC3)c2)nn1 [I-31] | 98
32 | Cc1ccc(C(=O)Nc2cc(C(C)(C)C)on2)cc1-n1cc(-c2cncc(N3CC(C)NC(C)C3)c2)nn1 (stereo not shown) [I-32] | 9
33 | Cc1ccc(C(=O)Nc2cc(C(C)(C)C)on2)cc1-n1cc(-c2cncc(NCC3CCCO3)c2)nn1 (stereo not shown) [I-34] | 9
34 | Cc1ccc(C(=O)Nc2cc(C(C)(C)C)on2)cc1-n1cc(-c2cncc(N(C)C(C)C)c2)nn1 [I-35] | 45
35 | COCCNc1cncc(-c2cn(-c3cc(C(=O)Nc4cc(C(C)(C)C)on4)ccc3C)nn2)c1 [I-36] | 16
36 | Cc1ccc(C(=O)Nc2cc(C(C)(C)C)on2)cc1-n1cc(-c2cncc(N3CCN(C(C)C)C(C)C3)c2)nn1 (stereo not shown) [I-37] | 20
37 | Cc1ccc(C(=O)Nc2cc(C(C)(C)C)on2)cc1-n1cc(-c2cncc(NC3CCOCC3)c2)nn1 [I-38] | 10
38 | Cc1ccc(C(=O)Nc2cc(C(C)(C)C)on2)cc1-n1cc(-c2cncc(N3CCCC3)c2)nn1 [I-39] | 41
39 | COCCCN1CCN(c2cncc(-c3cn(-c4cc(C(=O)Nc5cc(C(C)(C)C)on5)ccc4C)nn3)c2)CC1 [I-40] | 19
40 | CCCN1CCN(c2cncc(-c3cn(-c4cc(C(=O)Nc5cc(C(C)(C)C)on5)ccc4C)nn3)c2)CC1 [I-41] | 8
41 | Cc1ccc(C(=O)Nc2cc(C(C)(C)C)on2)cc1-n1cc(-c2cncc(N3CCCCC3)c2)nn1 [I-42] | 61
42 | Cc1ccc(C(=O)Nc2cc(C(C)(C)C)on2)cc1-n1cc(-c2cncc(NC3CCCC3)c2)nn1 [I-43] | 38

Row | Structure (SMILES) | IC50 [nM]
43 | Cc1ccc(C(=O)Nc2cc(C(C)(C)C)on2)cc1-n1cc(-c2cncc(N3CCN(C(C)C)CC3)c2)nn1 [I-44] | 11
44 | COCCN1C(C)CN(c2cncc(-c3cn(-c4cc(C(=O)Nc5cc(C(C)(C)C)on5)ccc4C)nn3)c2)CC1C (stereo not shown) [I-45] | 29
45 | Cc1ccc(C(=O)Nc2cc(C(C)(C)C)on2)cc1-n1cc(-c2cncc(NCCN(C)C)c2)nn1 [I-46] | 7
46 | Cc1ccc(C(=O)Nc2cc(C(C)(C)C)on2)cc1-n1cc(-c2cncc(N3CCOCC3)c2)nn1 [I-47] | 10
47 | CCN1CCN(c2cncc(-c3cn(-c4cc(C(=O)Nc5cc(C(C)(C)C)on5)ccc4C)nn3)c2)CC1 [I-48] | 6
48 | CCOCCN1CCN(c2cncc(-c3cn(-c4cc(C(=O)Nc5cc(C(C)(C)C)on5)ccc4C)nn3)c2)CC1 [I-49] | 29
49 | Cc1ccc(C(=O)Nc2cc(C(C)(C)C)on2)cc1-n1cc(-c2cncc(N3CCN(CC(C)C)CC3)c2)nn1 [I-50] | 13
50 | Cc1ccc(C(=O)Nc2cc(C(C)(C)C)on2)cc1-n1cc(-c2cncc(N3CCC(N(C)C)CC3)c2)nn1 [I-51] | 12
51 | Cc1ccc(C(=O)Nc2cc(C(C)(C)C)on2)cc1-n1cc(-c2cncc(N3CCCN(C(C)C)CC3)c2)nn1 [I-52] | 18
52 | COCCN(C)c1cncc(-c2cn(-c3cc(C(=O)Nc4cc(C(C)(C)C)on4)ccc3C)nn2)c1 [I-53] | 11
53 | Cc1ccc(C(=O)Nc2cc(C(C)(C)C)on2)cc1-n1cc(-c2cncc(NCC(F)F)c2)nn1 [I-54] | 51
54 | Cc1ccc(C(=O)Nc2cc(C(C)(C)C)nn2C)cc1-n1cc(-c2cncc(N3CCN(C)CC3)c2)nn1 [I-55] | 16
55 | CCN(C)c1cncc(-c2cn(-c3cc(C(=O)Nc4cc(C(C)(C)C)on4)ccc3C)nn2)c1 [I-56] | 18
56 | Cc1ccc(C(=O)Nc2cc(C(F)(F)F)ccn2)cc1-n1cc(-c2cncc(N3CCC3)c2)nn1 [I-57] | 16
57 | Cc1ccc(C(=O)Nc2cc(C(F)(F)F)ccn2)cc1-n1cc(-c2cncc(NCC3CCCO3)c2)nn1 (stereo not shown) [I-58] | 11
58 | Cc1ccc(C(=O)Nc2cc(C(F)(F)F)ccn2)cc1-n1cc(-c2cncc(N(C)CC3CCCO3)c2)nn1 (stereo not shown) [I-59] | 44
59 | Cc1ccc(C(=O)Nc2cc(C(F)(F)F)ccn2)cc1-n1cc(-c2cncc(N3CCC(N(C)C)CC3)c2)nn1 [I-60] | 8
60 | COCCN1CCN(c2cncc(-c3cn(-c4cc(C(=O)Nc5cc(C(F)(F)F)ccn5)ccc4C)nn3)c2)CC1 [I-61] | 11
61 | Cc1ccc(C(=O)Nc2cc(C(F)(F)F)ccn2)cc1-n1cc(-c2cncc(N(C)C)c2)nn1 [I-62] | 24
